# According to patent US20170360875A1 (priority 2014, published 2017):
# Values joined by “and” are separate entries in the source; they are usually repeats but may differ in a detail not shown here. Identical values can stand only once. Like-named read-outs stand apart in the source and are kept apart here. Ends that are not written are not given here.
# Assays:
# [1] = system: Sudan Ebolavirus Glycoprotein (GP); type: binding
# FcγIIb [2] = type: binding
# FcγIIa (H131 allele) [3] = type: binding, human
# FcγIIIb (NA2) [4] = type: binding
# FcγIIb/c = type: binding
# hepatitis A virus [5] = type: binding; conditions: for 1:10 HAV (OD 405 nm): 1:10 virus dilution, IC alone 0.997; for 1:100 HAV (OD 405 nm): 1:100 virus dilution, IC alone 0.953
# [6] = system: Influenza A/MAL/NY/6750/78 H2N2 virus; conditions: for Percent Inhibition, 1:10 IAV / Percent Inhibition, 1:100 IAV: /MAL/NY/6750/78 H2N2 virus
# FcγI [7] = type: binding
# C1q = type: binding, human
# FcγIIIa [8] = type: binding
# [9] = system: hepatitis C virus core protein; type: binding; conditions: NB406 10 mg/mL
# [10] = target: Influenza A/MAL/NY/6750/78 H2N2 virus; assay: reverse ELISA control; HRP without antibody on plate coated with IAV 1:10
# [11] = target: hepatitis C virus core protein (hepatitis C virus); assay: reverse ELISA control; HRP without antibody on plate coated with 5 µg HCV core protein
# hepatitis A virus [12] = assay: reverse ELISA control; HRP without antibody on plate coated with HAV 1:100
# [13] = target: Influenza A/MAL/NY/6750/78 H2N2 virus; assay: reverse ELISA control; HRP without antibody on plate coated with IAV 1:100
# hepatitis A virus [14] = assay: reverse ELISA control; HRP without antibody on plate coated with HAV 1:10
# FcγIIb [15] = target: FcγIIb (UniProt P31994); assay: reverse ELISA; PAP IC without inhibitor on plate coated with FcγIIb
# [16] = target: recombinant Sudan Ebolavirus glycoprotein (IBT Bioservices, Catalogue Number 0501-015) (Sudan Ebolavirus)
# [17] = target: Influenza A/MAL/NY/6750/78 H2N2 virus; assay: reverse ELISA; PAP IC without inhibitor on plate coated with IAV 1:100
# [18] = target: human C1q (Quidel Corp.) (human) (UniProt P02745); assay: reverse ELISA; PAP IC without inhibitor on C1q-coated plate
# FcγIIa (R131 allele) = FcγIIa (R131 allele) (UniProt P12318)
# FcγIIIb (NA2) [19] = target: FcγIIIb (NA2) (UniProt O75015); assay: reverse ELISA; PAP IC without inhibitor on plate coated with FcγIIIb (NA2)
# FcγI [20] = target: FcγI (UniProt P12314); assay: reverse ELISA; PAP IC without inhibitor on plate coated with FcγI
# FcγIIIa [21] = target: FcγIIIa (UniProt P08637); assay: reverse ELISA; PAP IC without inhibitor on plate coated with FcγIIIa
# hepatitis A virus [22] = assay: reverse ELISA; PAP IC without inhibitor on plate coated with HAV 1:100; average of three experiments
# hepatitis A virus [23] = assay: reverse ELISA; PAP IC without inhibitor on plate coated with HAV 1:10; average of three experiments
# FcγIIb [24] = target: FcγIIb (UniProt P31994); assay: reverse ELISA; PAP IC without inhibitor on plate coated with FcγIIb/c
# FcγIIa (H131 allele) [25] = target: FcγIIa (H131 allele) (UniProt P12318)
# [26] = target: Influenza A/MAL/NY/6750/78 H2N2 virus; assay: reverse ELISA; PAP IC without inhibitor on plate coated with IAV 1:10
# [27] = target: hepatitis C virus core protein (hepatitis C virus); assay: reverse ELISA; PAP IC without inhibitor on plate coated with 5 µg HCV core protein; average of three experiments
# [28] = NB406 10 mg/mL, average of three experiments
# UniProt P31994, sequence (P31994 46-217 limits assumed): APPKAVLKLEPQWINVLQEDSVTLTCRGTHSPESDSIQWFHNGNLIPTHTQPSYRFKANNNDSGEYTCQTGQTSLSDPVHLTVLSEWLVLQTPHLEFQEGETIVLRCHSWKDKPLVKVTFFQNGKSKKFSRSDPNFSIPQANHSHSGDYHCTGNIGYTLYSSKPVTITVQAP
# UniProt P08637, sequence (P08637 17-208): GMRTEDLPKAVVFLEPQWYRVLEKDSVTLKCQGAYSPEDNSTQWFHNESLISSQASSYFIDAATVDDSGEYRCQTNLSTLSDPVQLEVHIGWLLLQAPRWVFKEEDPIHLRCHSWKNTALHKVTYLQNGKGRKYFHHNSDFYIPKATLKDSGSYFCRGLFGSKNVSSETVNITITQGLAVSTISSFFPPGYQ
# UniProt O75015, sequence (O75015 17-200 N65S): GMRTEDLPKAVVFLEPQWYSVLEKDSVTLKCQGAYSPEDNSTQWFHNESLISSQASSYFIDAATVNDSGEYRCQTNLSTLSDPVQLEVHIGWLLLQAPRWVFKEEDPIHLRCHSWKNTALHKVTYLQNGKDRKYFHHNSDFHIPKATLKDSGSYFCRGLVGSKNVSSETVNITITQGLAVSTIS
# UniProt P12314, sequence (P12314 16-288 limits assumed): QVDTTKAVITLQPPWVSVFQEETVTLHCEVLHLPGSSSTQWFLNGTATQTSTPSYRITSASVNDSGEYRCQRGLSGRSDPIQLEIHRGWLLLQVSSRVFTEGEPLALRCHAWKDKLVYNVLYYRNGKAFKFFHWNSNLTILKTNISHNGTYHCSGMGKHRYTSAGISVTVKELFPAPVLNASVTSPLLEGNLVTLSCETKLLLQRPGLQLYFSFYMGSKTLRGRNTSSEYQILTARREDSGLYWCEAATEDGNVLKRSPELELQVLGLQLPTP
# UniProt P02745, sequence (P02745 23-245 limits assumed, chain 1 of 3): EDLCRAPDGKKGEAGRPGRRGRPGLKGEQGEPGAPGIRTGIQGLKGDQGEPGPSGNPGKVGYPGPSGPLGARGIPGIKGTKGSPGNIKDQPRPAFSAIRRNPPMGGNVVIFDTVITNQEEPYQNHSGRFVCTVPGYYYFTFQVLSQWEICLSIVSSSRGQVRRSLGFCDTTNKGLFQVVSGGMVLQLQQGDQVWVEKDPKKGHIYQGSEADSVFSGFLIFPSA
# UniProt P02745, sequence (P02746 28-253 limits assumed, chain 2 of 3, further chain): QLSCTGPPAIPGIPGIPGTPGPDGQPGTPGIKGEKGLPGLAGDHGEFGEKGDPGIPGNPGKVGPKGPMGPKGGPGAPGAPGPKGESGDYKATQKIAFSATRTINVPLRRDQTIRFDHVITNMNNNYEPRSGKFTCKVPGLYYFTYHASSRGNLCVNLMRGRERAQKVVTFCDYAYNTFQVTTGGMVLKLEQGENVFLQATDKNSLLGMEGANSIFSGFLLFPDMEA
# UniProt P02745, sequence (P02747 29-245 limits assumed, chain 3 of 3, further chain): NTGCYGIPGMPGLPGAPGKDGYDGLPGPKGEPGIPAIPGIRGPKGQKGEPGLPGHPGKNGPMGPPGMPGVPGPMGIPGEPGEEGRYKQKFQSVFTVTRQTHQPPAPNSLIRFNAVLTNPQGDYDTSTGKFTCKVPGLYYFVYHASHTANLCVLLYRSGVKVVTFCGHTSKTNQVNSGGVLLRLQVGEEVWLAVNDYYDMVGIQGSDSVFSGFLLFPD
molecule,measurement,setting,value
CC(C)C[C@@H]1NC(=O)[C@H](Cc2c[nH]cn2)NC(=O)[C@H](Cc2c[nH]c3ccccc23)NC(=O)[C@H](C)NC(=O)[C@@H](NC(=O)[C@H](CC(=O)O)NC(=O)[C@@H]2CCCN2C(=O)[C@@H]2CCCN2C(=O)[C@H](C)N)CSSC[C@@H](C(=O)N[C@H](C(=O)O)[C@@H](C)O)NC(=O)[C@H](Cc2c[nH]c3ccccc23)NC(=O)[C@H](C(C)C)NC(=O)[C@H](CC(C)C)NC(=O)[C@H](CCC(=O)O)NC(=O)CNC1=O [SEQ ID NO:20],1 ug/mL GP (OD read at 405 nm),[1],0.042 and 0.053 and 0.071
same,3 ug/mL GP (OD read at 405 nm),[1],0.042 and 0.046 and 0.081
same,"Percent Inhibition, 1 ug/mL GP",[1],96.8% and 96.0% and 94.6%
same,"Percent Inhibition, 3 ug/mL GP",[1],96.9% and 96.7% and 94.1%
same,"Percent Inhibition, 10 ug/mL GP",[1],97.1% and 96.4% and 94.1%
same,prevention of binding of IC to the Ebolavirus glycoprotein (in words),[1],can effectively prevent the binding of IC to the Ebolavirus glycoprotein
same,OD405 FcγIIb,FcγIIb [2],0.496
same,"% inhibition of IC binding, FcγIIa* (H131 allele)",FcγIIa (H131 allele) [3],94%
same,FcγIIa* (H131 allele) (read at 405 nm),FcγIIa (H131 allele) [3],0.209
same,inhibited binding of FcγRIIa to immune complexed IgG Fc,FcγIIa (H131 allele) [3],more than 70%
same,"% inhibition of IC binding, FcγIIIb (NA2)",FcγIIIb (NA2) [4],91%
same,FcγIIIb (NA2) (read at 405 nm),FcγIIIb (NA2) [4],0.266
same,"% inhibition of IC binding, FcγIIb/c",FcγIIb/c,88%
same,FcγIIb/c (read at 405 nm),FcγIIb/c,0.266
same,inhibited binding of FcγRIIb to immune complexed IgG Fc,FcγIIb/c,more than 70%
same,1:10 HAV (OD 405 nm),hepatitis A virus [5]; NB406 1.11 mg/mL,0.762
same,1:100 HAV (OD 405 nm),hepatitis A virus [5]; NB406 1.11 mg/mL,0.774
same,1:10 HAV (OD 405 nm),hepatitis A virus [5]; NB406 3.33 mg/mL,0.305
same,1:100 HAV (OD 405 nm),hepatitis A virus [5]; NB406 3.33 mg/mL,0.155
same,1:10 HAV (OD 405 nm),hepatitis A virus [5]; [28],0.050
same,1:100 HAV (OD 405 nm),hepatitis A virus [5]; [28],0.055
same,prevention of binding of IC to the hepatitis A virus (in words),hepatitis A virus [5]; conclusion from Table 5,can effectively prevent the binding of IC to the hepatitis A virus
same,prevention of binding of IC to the influenza virus (in words),[6],can effectively prevent the binding of IC to the influenza virus
same,"Percent Inhibition, 1:10 IAV",[6]; 0.37 mg/mL,63.5%
same,"Percent Inhibition, 1:100 IAV",[6]; 0.37 mg/mL,61.6%
same,"Percent Inhibition, 1:10 IAV",[6]; 1.11 mg/mL,89.5%
same,"Percent Inhibition, 1:100 IAV",[6]; 1.11 mg/mL,88.7%
same,"Percent Inhibition, 1:10 IAV",[6]; 3.33 mg/mL,96.6%
same,"Percent Inhibition, 1:100 IAV",[6]; 3.33 mg/mL,96.0%
same,"Percent Inhibition, 1:10 IAV",[6]; 10 mg/mL,97.6%
same,"Percent Inhibition, 1:100 IAV",[6]; 10 mg/mL,97.0%
same,"% inhibition of IC binding, FcγI",FcγI [7],89%
same,FcγI (read at 405 nm),FcγI [7],0.264
same,OD 405 nm,C1q,0.389
same,inhibition of C1q binding (rank in words),C1q,greatest inhibition of C1q binding
same,OD405 FcγIIIa,FcγIIIa [8],0.670
same,prevention of binding of IC to the Ebola virus (in words),Sudan Ebolavirus (SEBOV),can effectively prevent the binding of IC to the Ebola virus
same,"Percent Inhibition, 1:100 SEV",Sudan Ebolavirus (SEBOV); 1 mg/mL,77.6%
same,"Percent Inhibition, 1:1000 SEV",Sudan Ebolavirus (SEBOV); 1 mg/mL,64.8%
same,"Percent Inhibition, 1:10000 SEV",Sudan Ebolavirus (SEBOV); 1 mg/mL,58.6%
same,"Percent Inhibition, 1:100 SEV",Sudan Ebolavirus (SEBOV); 3 mg/mL,95.1%
same,"Percent Inhibition, 1:1000 SEV",Sudan Ebolavirus (SEBOV); 3 mg/mL,94.6%
same,"Percent Inhibition, 1:10000 SEV",Sudan Ebolavirus (SEBOV); 3 mg/mL,94.6%
same,"Percent Inhibition, 1:100 SEV",Sudan Ebolavirus (SEBOV); 10 mg/mL,96.6%
same,"Percent Inhibition, 1:1000 SEV",Sudan Ebolavirus (SEBOV); 10 mg/mL,96.3%
same,"Percent Inhibition, 1:10000 SEV",Sudan Ebolavirus (SEBOV); 10 mg/mL,96.3%
same,"Percent Inhibition, 5 μg HCV Core Protein",[9],89.7%
same,5 μg HCV Core Protein (OD 405 nm),"[9]; IC alone 2.752, average of three experiments",0.283
APPCAFHLGELVWCT (cysteine pairing not given here) [SEQ ID NO:18],OD405 FcγIIb,FcγIIb [2],0.380
same,OD 405 nm,C1q,0.983
same,OD405 FcγIIIa,FcγIIIa [8],0.880
APPCARHLGELVWCT (cysteine pairing not given here) [SEQ ID NO:16],OD405 FcγIIb,FcγIIb [2],0.768
same,OD 405 nm,C1q,0.567
same,inhibition of C1q binding (rank in words),C1q,next best result
same,OD405 FcγIIIa,FcγIIIa [8],0.709
APPCAWHLGELVWCT (cysteine pairing not given here) [SEQ ID NO:14],OD405 FcγIIb,FcγIIb [2],0.562
same,OD 405 nm,C1q,1.148
same,OD405 FcγIIIa,FcγIIIa [8],0.530
Asp-Cys-Ala-Phe-His-Leu-Gly-Glu-Leu-Val-Trp-Cys-Thr [SEQ ID NO:3],OD405 FcγIIb,FcγIIb [2],0.510
same,OD 405 nm,C1q,0.859
same,OD405 FcγIIIa,FcγIIIa [8],0.810
Asp-Cys-Ala-Trp-His-Leu-Gly-Glu-Leu-Val-Trp-Cys-Thr [SEQ ID NO:2],OD405 FcγIIb,FcγIIb [2],0.532
same,OD 405 nm,C1q,1.100
same,OD405 FcγIIIa,FcγIIIa [8],0.741
"horseradish peroxidase (HRP), Sigma-Aldrich P6782 (from UniProt P00433 31-338) (enzyme)",OD 405 nm,[10],0.163 OD 405 nm
same,OD 405 nm,[11],0.172 OD 405 nm
same,OD 405 nm,hepatitis A virus [12],0.138 OD 405 nm
same,OD 405 nm,[13],0.178 OD 405 nm
same,OD 405 nm,hepatitis A virus [14],0.117 OD 405 nm
preformed immune complex of peroxidase-rabbit anti-peroxidase IgG (PAP complex) (from UniProt P00433 31-338),OD405,FcγIIb [15],1.39 OD405
same,OD 405 nm,[16],1.61 OD 405 nm and 1.38 OD 405 nm and 1.31 OD 405 nm
same,OD 405 nm,[17],1.87 OD 405 nm
same,OD 405 nm,[18],2.35 OD 405 nm
same,OD405,FcγIIa (R131 allele),1.6 OD405
same,OD 405 nm,FcγIIIb (NA2) [19],3.06 OD 405 nm
same,OD 405 nm,FcγI [20],2.33 OD 405 nm
same,OD405,FcγIIIa [21],1.59 OD405
same,OD 405 nm,hepatitis A virus [22],0.953 OD 405 nm
same,OD 405 nm,hepatitis A virus [23],0.997 OD 405 nm
same,OD 405 nm,FcγIIb [24],2.22 OD 405 nm
same,OD 405 nm,FcγIIa (H131 allele) [25],3.51 OD 405 nm
same,OD 405 nm,[26],1.94 OD 405 nm
same,OD 405 nm,[27],2.75 OD 405 nm
